# Results published in patent US8686178B2, “Derivative of 18β-glycyrrhetinic acid apt to suppress cancer cells” (Kaohsiung Medical University, priority 2011, dated 2014).
# Assays:
# NTUB1 cells = assay: Trial (E): cell cycle progression by flow cytometry (propidium iodide); type: cell-based, human; parameters: Sub-G1 / G1: unit not given here; settings: for G1 / G2/M / S / Sub-G1: 24 hours
# Description: In order to determine a relationship between the derivatives of 18β-glycyrrhetinic acid of the present invention and cell cycle arrest, trial (E) is carried out by analyzing cell cycle progression by flow cytometry. […] After that, cell cycle progression of each group is determined respectively by incubating with 50 μg/mL propidium iodide (Sigma, Co) and 50 μg/mL RNase A (Sigma, Co) in PBS at room temperature for 30 min, and analyzing by FACScan flow cytometer and Cell Quest sofeware.
# p-p53 (Ser15) = assay: Trial (G): expression of p53 / p-p53 by Western blot; type: cell-based, human; settings: 10, 25, 50 μM, 24 hours, NTUB1
# Description: In trial (G), expression of p53 is monitored via Western blot analysis in accordance with a journal article published by Son et al., at 2010 in Toxicol. Appl. Pharmacol., in which overproduction ROS induced p53 suppression is observed.
# Referring to TABLE 7, the NTUB1 cells at a density of 8×10^5 cells/ml are prepared and assigned into 9 groups, including G1-1 to G1-5 and G2-1 to G2-4, to incubate in various medium for 24 hours, followed by harvesting in trypsinization, resuspending in PBS till at a suitable density and collecting the NTUB1 cells of each group respectively.
# Next, the NTUB1 cells of each group are further diluted with equal volume of 2× sample buffer, boiled for 10 minutes twice to denature protein therein, and analyzed by SDS-PAGE. After that, proteins on SDS-PAGE datum are transferred to nitrocellulose membranes (Millipore, Billerica, Mass., USA) using a semi-dry blotter, followed by blocking with 5% (w/v) skimmed milk in TBST buffer (100 mM Tris-HCl (pH 7.5), 150 mM NaCl and 0.1% Tween-20), incubating with specific antibodies [including antibodies specific for b-acctin (NB600-501), p-p53 (Ser15) (9284) and p53 (DO1)]. at 4° C. overnight, washing with TBST buffer again and incubated with secondary antibody at room temperature. Finally, western data of each group are visualized on Fuji SuperRX film. […]
smiles,measurement,setting,value
"C=C(C)[C@@H]1CC[C@]2(C)[C@H](C(=O)C=C3[C@@H]4C[C@@](C)(C(=O)NC(C)C)CC[C@]4(C)CC[C@]32C)[C@@]1(C)CCC(=O)NC(C)C [Compound 25, 3,4-seco-11-oxo-18β-olean-4(23),12-dien-3,30-diisopropyl carbamate]",G1,"NTUB1 cells; 25 μM, NTUB1",49.51
same,G2/M,"NTUB1 cells; 25 μM, NTUB1",12.68
same,S,"NTUB1 cells; 25 μM, NTUB1",12.69
same,Sub-G1,"NTUB1 cells; 25 μM, NTUB1",20.39
same,G1,"NTUB1 cells; 50 μM, NTUB1",35.72
same,G2/M,"NTUB1 cells; 50 μM, NTUB1",5.22
same,S,"NTUB1 cells; 50 μM, NTUB1",3.15
same,Sub-G1,"NTUB1 cells; 50 μM, NTUB1",55.71
same,G1,"NTUB1 cells; 75 μM, NTUB1",14.69
same,G2/M,"NTUB1 cells; 75 μM, NTUB1",4.00
same,S,"NTUB1 cells; 75 μM, NTUB1",2.79
same,Sub-G1,"NTUB1 cells; 75 μM, NTUB1",78.39
same,cell cycle arrest,"NTUB1 cells; 25, 50 and 75 μM, NTUB1",does not induce cell cycle arrest
same,population of sub-G1 phase,"NTUB1 cells; 25, 50 and 75 μM, NTUB1",induce the population of sub-G1 phase to cancer cells in dose-dependent manner
same,S phase cells,NTUB1 cells; NTUB1 exposed to compound,a decrease of S phase cells
same,"levels of p-p53 (Western blot, FIGS. 9, 10)",p-p53 (Ser15),increase levels of p-p53 in a dose-dependent manner
